Consider seven compounds from US20250162988A1, “CRYSTALS OF VITAMIN D DERIVATIVE OR CRYSTALS OF SOLVATE THEREOF” (TEIJIN PHARMA LIMITED, priority 2022, published 2025).

For data set [1] the following is noted: in vivo; cited from earlier work.
The test system of data set [2] is rat oligodendrocyte progenitor cells. As to the kind of experiment: Promotive activity of rat oligodendrocyte progenitor cell differentiation (MBP immunostaining). The format is cell-based, SD rats. To be noted: vitamin D derivative 2 μM, T3 30 nM, cultured for 4 days. The method, then:
The promotive activity of oligodendrocyte progenitor cell (OPC) differentiation of the vitamin D derivatives was evaluated by immunostaining of myelin basic protein (MBP).
Subsequently, oligodendrocyte progenitor cell separation medium was added to the flask, and the mixture was similarly shaken for about 22 hours (37° C., 200 rpm), and the supernatant was collected to prepare oligodendrocyte progenitor cells.
After cell seeding, a solution of the test compound or a solution prepared from DMSO with a differentiation medium were added to the cells such that the DMSO concentration in the wells was 0.1%. The cells were cultured for 4 days.

Data set [3] can be described thus: Evaluation of brain penetration in mice (single oral dose, plasma and brain level by LC/MS/MS). The format is in vivo, C57BL/6J mice. The settings on record: mean ± S.D. The method, then: The administration solution was administered orally to C57BL/6J mice (8 weeks old, male, n=3) at a single dose (1 mg/kg). Mice were euthanized at 6 points of 0.25, 0.5, 1, 2, 4, and 8 hours after administration, and plasma and brain sampling were performed. After preparing a homogenate from the collected brain using Tissue Lyser II (QIAGEN #85300), acetonitrile was added to the homogenate and the homogenate was centrifuged (TOMY DIGITAL BIOLOGY MX-307, 12000 rpm, 5 minutes) to extract the administered test compound contained in the brain. Similarly, the plasma was subjected to addition of acetonitrile and centrifugal separation to extract the administered test compound contained in the plasma. Each extracted sample was subjected to measurement of the concentration of administered test compound using LC/MS/MS (SHIMADZU UFLC/MS/MS (8050)).
The administration solution was administered orally to C57BL/6J mice (8 weeks old, male, n=3) at a single dose (0.2 mg/kg). Mice were euthanized at 6 points of 0.25, 0.5, 1, 2, 4, and 8 hours after administration, and plasma and brain sampling were performed. After preparing a homogenate from the collected brain using Tissue Lyser II (QIAGEN #85300), acetonitrile was added to the homogenate and the homogenate was centrifuged (TOMY DIGITAL BIOLOGY MX-307, 12000 rpm, 5 minutes) to extract the administered compound contained in the brain. Similarly, the plasma was subjected to addition of acetonitrile and centrifugal separation to extract the administered test compound contained in the plasma. Each extracted sample was subjected to measurement of the concentration of administered test compound using LC/MS/MS (SHIMADZU UFLC/MS/MS (8050)).

Setting [4] is: Test 1, 1 mg/kg single oral dose.

Take `C=C1/C(=C\C=C2/CCC[C@]3(C)[C@@H]([C@H](C)CCCC(C)(C)O)CC[C@@H]23)C[C@@H](O)C[C@@H]1O` [1α,25-dihydroxyvitamin D3]: the “ratio of concentration in brain/concentration in blood” value in data set [1] was 0.007±0.003.
For the compound `C[C@H](CN1CC[C@H](C(F)F)C1)[C@H]1CC[C@H]2/C(=C/C=C3C[C@@H](O)C[C@H](O)C3)CCC[C@]12C` [Compound (A), (1R,3R)-5-(2-((1R,3aS,7aR,E)-1-((S)-1-((S)-3-(difluoromethyl)pyrrolidin-1-yl)propan-2-yl)-7a-methyloctahydro-4H-inden-4-ylidene)ethylidene)cyclohexane-1,3-diol], in data set [2] (Test 1), the “Average value (mean) of the ratio (the number of MBP-positive cells/the number of Hoechst33342-positive cells)” value worked out at 0.47. For the same compound, the “Brain level at the time of brain Cmax” value in data set [3] (setting [4]) is on record as 529 ± 53 pmol/g.
Regarding `C[C@H](CN1CC[C@@H](C(F)F)C1)[C@H]1CC[C@H]2/C(=C/C=C3C[C@@H](O)C[C@H](O)C3)CCC[C@]12C` [Compound (B), (1R,3R)-5-(2-((1R,3aS,7aR,E)-1-((S)-1-((R)-3-(difluoromethyl)pyrrolidin-1-yl)propan-2-yl)-7a-methyloctahydro-4H-inden-4-ylidene)ethylidene)cyclohexane-1,3-diol], the “Average value (mean) of the ratio (the number of MBP-positive cells/the number of Hoechst33342-positive cells)” value in data set [2] (Test 1) amounted to 0.38. Besides, the “Brain level at the time of brain Cmax” value in data set [3] (setting [4]) came out at 384 ± 40 pmol/g.
As for `C[C@H](CN1CC[C@@H](C(C)(F)F)C1)[C@H]1CC[C@H]2/C(=C/C=C3C[C@@H](O)C[C@H](O)C3)CCC[C@]12C` [Compound (C), (1R,3R)-5-(2-((1R,3aS,7aR,E)-1-((S)-1-((R)-3-(1,1-difluoroethyl)pyrrolidin-1-yl)propan-2-yl)-7a-methyloctahydro-4H-inden-4-ylidene)ethylidene)cyclohexane-1,3-diol], the “Average value (mean) of the ratio (the number of MBP-positive cells/the number of Hoechst33342-positive cells)” value in data set [2] (Test 1) is given as 0.57. Moreover, the “Brain level at the time of brain Cmax” value in data set [3] (setting [4]) is recorded as 562 ± 50 pmol/g.
For `C[C@H](CN1CC[C@@H](CC(F)F)C1)[C@H]1CC[C@H]2/C(=C/C=C3C[C@@H](O)C[C@H](O)C3)CCC[C@]12C` [Compound (D), (1R,3R)-5-(2-((1R,3aS,7aR,E)-1-((S)-1-((S)-3-(2,2-difluoroethyl)pyrrolidin-1-yl)propan-2-yl)-7a-methyloctahydro-4H-inden-4-ylidene)ethylidene)cyclohexane-1,3-diol], in data set [2] (Test 2), the “Average value (mean) of the ratio (the number of MBP-positive cells/the number of Hoechst33342-positive cells)” value was 0.53. For the same compound, in data set [3] (setting [4]), the “Brain level at the time of brain Cmax” value came to 80 ± 9 pmol/g.
Turning to `C[C@H](CCN1CCOCC1)[C@H]1CC[C@H]2/C(=C/C=C3C[C@@H](O)C[C@H](O)C3)CCC[C@]12C` [Compound (E), (1R,3R)-5-(2-((1R,3aS,7aR,E)-7a-methyl-1-((R)-4-morpholinobutane-2-yl)octahydro-4H-inden-4-ylidene)ethylidene)cyclohexane-1,3-diol], in data set [2] (Test 2), the “Average value (mean) of the ratio (the number of MBP-positive cells/the number of Hoechst33342-positive cells)” value came to 0.36. Further, the “Brain level at the time of brain Cmax” value in data set [3] (setting [4]) turned out to be 595 ± 23 pmol/g.
For `C[C@H](CN1CCOCC1(C)C)[C@H]1CC[C@H]2/C(=C/C=C3C[C@@H](O)C[C@H](O)C3)CCC[C@]12C` [Compound (F), (1R,3R)-5-(2-((1R,3aS,7aR,E)-1-((S)-1-(3,3-dimethylmorpholino)propan-2-yl)-7a-methyloctahydro-4H-inden-4-ylidene)ethylidene)cyclohexane-1,3-diol], the “Average value (mean) of the ratio (the number of MBP-positive cells/the number of Hoechst33342-positive cells)” value in data set [2] (Test 3) came to 0.50. For the same compound, the “Brain level at the time of brain Cmax” value in data set [3] (Test 2, 0.2 mg/kg single oral dose) was 137.8 ± 11.5 pmol/g.
